Measured values from US20190307770A1, “METHODS FOR TREATING OR PREVENTING CANCER IN A KRAS-VARIANT PATIENT AND FOR […] OF […] PRIMARY BREAST TUMORS” (MIRADX, priority 2014, published 2019).

Tests used:
[1] = tested on: MCF10A KRAS-variant+/- (MT) cell lines; assay: Anchorage independent growth (soft agar colony formation) as measure of transformation; type: cell-based, human; details: for level of transformation in anchorage independent growth assay: KRAS-variant (L1 and L2) versus parental (WT) MCF10A lines, comparison of anti-estrogen treatments and estrogen; for fold increased colony formation rate: KRAS-variant MCF10A lines, grown without EGF
Experimental: Anchorage independent growth was assessed as described previously (Sweasy et al. (2005) PNAS 102:14350-5). After thawing and growing cells until confluence in EGF supplemented media (20 ng/ml), cells were plated into conditions of study for two passages. For estrogen depletion experiments phenol red free DMEM/F12 medium (Invitrogen) and 5% charcoal-stripped horse serum (Thermo Fisher) were used, and Tamoxifen or estrogen was added to a final concentration of 1 μM after the first passage, as appropriate. To plate, 100 μl of MCF10A (WT) or (MT) cells at a density of 400,000 cells/ml were mixed with 2 ml of media for the condition under study containing 2 ml 0.7% noble agar (USB). 1 ml of the cell mixture was added to 1 ml of 1.0% noble agar in a well of a 6-well dish. Cells were fed twice weekly by layering on a 50:50 mixture of media with 0.7% agar for 2 weeks, followed by only media for two-three additional weeks. The number of colonies present in each of ten microscope fields per well from a total of 3 wells per experiment was counted to evaluate transformation and is reported as an average of the 2 separate MT lines.
Next, WT and MT lines were plated in soft agar to test for transformation, as measured by anchorage independent growth. […] The impact of estrogen withdrawal on this transformation was next evaluated by the use of charcoal stripped serum, tamoxifen, or a combination of the two. […] These findings biologically confirm wide spread transformation in normal breast epithelium with acute estrogen withdrawal in breast cells with the KRAS-variant.
Next, different forms of estrogen inhibitors were tested to determine their effects on transformation in the presence of the KRAS-variant. Tamoxifen (ER antagonist in breast), anastrozole (aromatase inhibitor, inhibiting estrogen synthesis), and fulvestrant (a complete ER antagonist) were administered to parental (WT) or two KRAS-variant (L1 and L2) MCF10A cell lines and anchorage independent growth was assessed using the colony formation assay described above.

[2] = post-menopausal use of estrogen alone, median follow up 11.8 years; CI 0.62-0.95, p 0.02; cited from earlier work

Molecule	level of transformation in anchorage independent growth assay ([1]; FIG. 5)	level of transformation in anchorage independent growth assay ([1]; FIG. 5, listed as Estrogen)	transformation (colony formation) after return of estrogen to charcoal-stripped media ([1]; KRAS-variant MT cell lines, charcoal-stripped media, estrogen 1 μM, p=0.018, FIG. 4)	breast cancer incidence versus placebo, HR [2]	colonies formed relative to the anastrozole or fulvestrant treatments ([1]; KRAS-variant (L1 and L2) MCF10A lines, FIG. 5) [times]	fold increased colony formation rate ([1]; Tamoxifen combined with charcoal stripped media) [fold]	fold increased colony formation rate ([1]; in the presence of Tamoxifen (1 μM final)) [fold]
estrogen	prevented transformation	prevents transformation	decreased transformation	0.77			
CC/C(=C(\c1ccccc1)c1ccc(OCCN(C)C)cc1)c1ccccc1 [Tamoxifen]	highest level of transformation				~10	7.9	2
